Legend:
KRAS G12V = KRAS G12V (Homo sapiens, UniProt P01116, G12V); assay: GDP-GTP exchange assay (bodipy-GDP/GppNHp, SOS1), KRAS G12V; assay type: biochemical; details: KRAS_G12V exchange assay IC50, value for the most potent isomer quoted; for IC50: read-out: G12V_exchange
Procedure: (§1) The inhibitor potency of the exemplified compounds was determined in a fluorescence based guanine nucleotide exchange assay, which measures the exchange of bodipy-GDP (fluorescently labeled GDP) for GppNHp (Non-hydrolyzable GTP analog) to generate the active state of KRAS in the presence of SOS1 (guanine nucleotide exchange factor). Inhibitors were serially diluted in DMSO and a volume of 0.1 μL was transferred to the wells of a black low volume 384-well plate. 5 μL/well volume of bodipy-loaded KRAS G12D diluted to […] in assay buffer (25 mM Hepes pH 7.5, 50 mM NaCl, 10 mM mgCl2 and 0.01% Brij-35) was added to the plate and pre-incubated with inhibitor for 4 h at ambient temperature. Appropriate controls (enzyme with no inhibitor or with a G12D inhibitor) were included on the plate. The exchange was initiated by the addition of a 5 μL/well volume containing 1 mM GppNHp and 300 nM SOS1 in assay buffer. The 10 μL/well reaction concentration of the bodipy-loaded KRAS G12D, GppNHp, and SOS1 were 2.5 nM, 500 uM, and 150 nM, respectively. The reaction plates were incubated at ambient temperature for 2 h, a time estimated for complete GDP-GTP exchange in the absence of inhibitor. For the KRAS G12V mutant, similar guanine nucleotide exchange assays were used with 2.5 nM as final concentration for the bodipy loaded KRAS proteins and 3 h incubation after adding GppNHp-SOS1 mixture. A cyclic peptide described to selectively bind G12D mutant (Sakamoto et al., BBRC 484.3 (2017), 605-611) or internal compounds with confirmed binding were used as positive controls in the assay plates. Fluorescence intensities were measured on a PheraStar plate reader instrument (BMG Labtech) with excitation at 485 nm and emission at 520 nm.
(§2) Either GraphPad prism or Genedata Screener SmartFit was used to analyze the data. The IC50 values were derived by fitting the data to a four parameter logistic equation producing a sigmoidal dose-response curve with a variable Hill coefficient.
(§3) The symbol “t” indicates IC50≤100 nM, “††” indicates IC50>100 nM but ≤1 μM; and “†††” indicates IC50 is >1 μM but ≤5 μM, “††††” indicates IC50 is >5 μM but ≤10 μM. “NA” indicates IC50 not available.

KRAS G12D = KRAS G12D (Homo sapiens, UniProt P01116, G12D); assay: GDP-GTP exchange assay (bodipy-GDP/GppNHp, SOS1), KRAS G12D; assay type: biochemical; details: KRAS_G12D exchange assay IC50; 4 h pre-incubation; value for the most potent isomer quoted
Sequence of KRAS G12D (P01116 1-188 isoform P01116-2 G12D): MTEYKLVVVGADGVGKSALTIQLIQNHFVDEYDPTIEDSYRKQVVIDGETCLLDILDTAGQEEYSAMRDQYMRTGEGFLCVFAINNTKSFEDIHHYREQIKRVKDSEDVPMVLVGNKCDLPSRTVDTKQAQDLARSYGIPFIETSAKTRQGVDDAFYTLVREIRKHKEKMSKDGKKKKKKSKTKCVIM
Procedure: as §1, §2, §3

Sequence of KRAS G12V (P01116 1-188 isoform P01116-2 G12V): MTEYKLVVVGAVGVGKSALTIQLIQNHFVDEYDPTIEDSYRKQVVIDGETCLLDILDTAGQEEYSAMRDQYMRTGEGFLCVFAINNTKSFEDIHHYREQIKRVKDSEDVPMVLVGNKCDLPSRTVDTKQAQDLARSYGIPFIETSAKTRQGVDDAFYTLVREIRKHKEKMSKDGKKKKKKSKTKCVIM

Structure (SMILES)	G12V_exchange (KRAS G12V)	G12D_exchange (KRAS G12D)	IC50 (KRAS G12V)
Cc1nc2c(F)c(-c3cccc(Cl)c3Cl)c(CCC#N)cc2c2c1cc([C@@H](C)N1CCCN(c3cncnc3)C1=O)n2[C@H]1[C@H]2CN[C@@H]1C2 [Example 34, 3-(1-((1R,4R,5S)-2-azabicyclo[2.1.1]hexan-5-yl)-7-(2,3-dichlorophenyl)-6-fluoro-4-methyl-2-((R)-1-(2-oxo-3-(pyrimidin-5-yl)tetrahydropyrimidin-1(2H)-yl)ethyl)-1H-pyrrolo[3,2-c]quinolin-8-yl)propanenitrile]	†	†	
Cc1nc2c(F)c(-c3cccc(Cl)c3Cl)c(CCC#N)cc2c2c1cc([C@@H](C)N1CCCN(c3ccnc4sccc34)C1=O)n2[C@H]1[C@H]2CN[C@@H]1C2 (single isomer, unassigned) [Example 8]	†	†	
Cc1nc2c(F)c(-c3cccc(Cl)c3Cl)c(CCC#N)cc2c2c1cc([C@@H](C)N1CCCN(c3ccccn3)C1=O)n2[C@H]1[C@H]2CN[C@@H]1C2 [Example 19, 3-(1-((1R,4R,5S)-2-azabicyclo[2.1.1]hexan-5-yl)-7-(2,3-dichlorophenyl)-6-fluoro-4-methyl-2-((R)-1-(2-oxo-3-(pyridin-2-yl)tetrahydropyrimidin-1(2H)-yl)ethyl)-1H-pyrrolo[3,2-c]quinolin-8-yl)propanenitrile]	†	†	
Cc1nc2c(F)c(-c3cccc(Cl)c3Cl)c(CCC#N)cc2c2c1cc([C@@H](C)N1CCCN(c3ccc(C#N)cc3)C1=O)n2[C@H]1[C@H]2CN[C@@H]1C2 [Example 25, 4-(3-((1R)-1-(1-((1R,4R,5S)-2-azabicyclo[2.1.1]hexan-5-yl)-8-(2-cyanoethyl)-7-(2,3-dichlorophenyl)-6-fluoro-4-methyl-1H-pyrrolo[3,2-c]quinolin-2-yl)ethyl)-2-oxotetrahydropyrimidin-1(2H)-yl)benzonitrile]		†	0.1 to 1 µM
Cc1nc2c(F)c(-c3cccc(Cl)c3Cl)c(CCC#N)cc2c2c1cc([C@@H](C)N1CCCN(c3cccc(C4(O)COC4)c3)C1=O)n2[C@H]1[C@H]2CN[C@@H]1C2 [Example 24, 3-(1-((1R,4R,5S)-2-azabicyclo[2.1.1]hexan-5-yl)-7-(2,3-dichlorophenyl)-6-fluoro-2-((R)-1-(3-(3-(3-hydroxyoxetan-3-yl)phenyl)-2-oxotetrahydropyrimidin-1(2H)-yl)ethyl)-4-methyl-1H-pyrrolo[3,2-c]quinolin-8-yl)propanenitrile]	†	†	
Cc1nc2c(F)c(-c3cccc(Cl)c3Cl)c(CCC#N)cc2c2c1cc([C@@H](C)N1CCCN(c3cncnc3)C1=O)n2[C@H]1[C@H]2CN[C@@H]1C2 (single isomer, unassigned) [Example 10]	†	†	
Cc1nc2c(F)c(-c3cccc(Cl)c3Cl)c(CCC#N)cc2c2c1cc([C@@H](C)N1CCCN(c3ccccc3)C1=O)n2[C@H]1[C@H]2CN[C@@H]1C2 [Example 16, 3-(1-((1R,4R,5S)-2-azabicyclo[2.1.1]hexan-5-yl)-7-(2,3-dichlorophenyl)-6-fluoro-4-methyl-2-((R)-1-(2-oxo-3-phenyltetrahydropyrimidin-1(2H)-yl)ethyl)-1H-pyrrolo[3,2-c]quinolin-8-yl)propanenitrile]	†	†	

Now from value to molecule:

G12V_exchange (KRAS G12V)	G12D_exchange (KRAS G12D)	IC50 (KRAS G12V)	Structure (SMILES)
	†	0.1 to 1 µM	Cc1nc2c(F)c(-c3cccc(Cl)c3Cl)c(CCC#N)cc2c2c1cc([C@@H](C)N1CCCN(c3ccnc(C(F)F)c3)C1=O)n2[C@H]1[C@H]2CN[C@@H]1C2 [Example 31, 3-(1-((1R,4R,5S)-2-azabicyclo[2.1.1]hexan-5-yl)-7-(2,3-dichlorophenyl)-2-((R)-1-(3-(2-(difluoromethyl)pyridin-4-yl)-2-oxotetrahydropyrimidin-1(2H)-yl)ethyl)-6-fluoro-4-methyl-1H-pyrrolo[3,2-c]quinolin-8-yl)propanenitrile]
	†	0.1 to 1 µM	Cc1nc2c(F)c(-c3cccc(Cl)c3Cl)c(CCC#N)cc2c2c1cc([C@@H](C)N1CCCN(c3ccncc3)C1=O)n2[C@H]1[C@H]2CN[C@@H]1C2 [Example 17, 3-(1-((1R,4R,5S)-2-azabicyclo[2.1.1]hexan-5-yl)-7-(2,3-dichlorophenyl)-6-fluoro-4-methyl-2-((R)-1-(2-oxo-3-(pyridin-4-yl)tetrahydropyrimidin-1(2H)-yl)ethyl)-1H-pyrrolo[3,2-c]quinolin-8-yl)propanenitrile]
†	†		Cc1nc2c(F)c(-c3cccc(Cl)c3Cl)c(CCC#N)cc2c2c1cc([C@@H](C)N1CCCN(c3ccnc(N)c3)C1=O)n2[C@H]1[C@H]2CN[C@@H]1C2 [Example 32, 3-(2-((R)-1-(3-(2-aminopyridin-4-yl)-2-oxotetrahydropyrimidin-1(2H)-yl)ethyl)-1-((1R,4R,5S)-2-azabicyclo[2.1.1]hexan-5-yl)-7-(2,3-dichlorophenyl)-6-fluoro-4-methyl-1H-pyrrolo[3,2-c]quinolin-8-yl)propanenitrile]
†	†		Cc1nc2c(F)c(-c3cccc(Cl)c3Cl)c(CCC#N)cc2c2c1cc([C@@H](C)N1CCCN(c3ccc(F)cn3)C1=O)n2[C@H]1[C@H]2CN[C@@H]1C2 [Example 40, 3-(1-((1R,4R,5S)-2-azabicyclo[2.1.1]hexan-5-yl)-7-(2,3-dichlorophenyl)-6-fluoro-2-((R)-1-(3-(5-fluoropyridin-2-yl)-2-oxotetrahydropyrimidin-1(2H)-yl)ethyl)-4-methyl-1H-pyrrolo[3,2-c]quinolin-8-yl)propanenitrile]
	†	0.1 to 1 µM	Cc1nc2c(F)c(-c3cccc(Cl)c3Cl)c(CCC#N)cc2c2c1cc([C@@H](C)N1CCCN(c3ccncn3)C1=O)n2[C@H]1[C@H]2CN[C@@H]1C2 [Example 33, 3-(1-((1R,4R,5S)-2-azabicyclo[2.1.1]hexan-5-yl)-7-(2,3-dichlorophenyl)-6-fluoro-4-methyl-2-((R)-1-(2-oxo-3-(pyrimidin-4-yl)tetrahydropyrimidin-1(2H)-yl)ethyl)-1H-pyrrolo[3,2-c]quinolin-8-yl)propanenitrile]
	†	0.1 to 1 µM	Cc1nc2c(F)c(-c3cccc(Cl)c3Cl)c(CCC#N)cc2c2c1cc([C@@H](C)N1CCCN(c3cccc(F)n3)C1=O)n2[C@H]1[C@H]2CN[C@@H]1C2 [Example 41, 3-(1-((1R,4R,5S)-2-azabicyclo[2.1.1]hexan-5-yl)-7-(2,3-dichlorophenyl)-6-fluoro-2-((R)-1-(3-(6-fluoropyridin-2-yl)-2-oxotetrahydropyrimidin-1(2H)-yl)ethyl)-4-methyl-1H-pyrrolo[3,2-c]quinolin-8-yl)propanenitrile]
	†	0.1 to 1 µM	Cc1nc2c(F)c(-c3cccc(Cl)c3Cl)c(CCC#N)cc2c2c1cc([C@@H](C)N1CCCN(c3ccnc(N(C)C)c3)C1=O)n2[C@H]1[C@H]2CN[C@@H]1C2 [Example 30, 3-(1-((1R,4R,5S)-2-azabicyclo[2.1.1]hexan-5-yl)-7-(2,3-dichlorophenyl)-2-((R)-1-(3-(2-(dimethylamino)pyridin-4-yl)-2-oxotetrahydropyrimidin-1(2H)-yl)ethyl)-6-fluoro-4-methyl-1H-pyrrolo[3,2-c]quinolin-8-yl)propanenitrile]
†	†		Cc1nc2c(F)c(-c3cccc(Cl)c3Cl)c(CCC#N)cc2c2c1cc([C@@H](C)N1CCCN(c3ccnc(F)c3)C1=O)n2[C@H]1[C@H]2CN[C@@H]1C2 [Example 27, 3-(1-((1R,4R,5S)-2-azabicyclo[2.1.1]hexan-5-yl)-7-(2,3-dichlorophenyl)-6-fluoro-2-((R)-1-(3-(2-fluoropyridin-4-yl)-2-oxotetrahydropyrimidin-1(2H)-yl)ethyl)-4-methyl-1H-pyrrolo[3,2-c]quinolin-8-yl)propanenitrile]
†	†		Cc1nc2c(F)c(-c3cccc(Cl)c3Cl)c(CCC#N)cc2c2c1cc([C@@H](C)N1CCCN(c3ccncc3F)C1=O)n2[C@H]1[C@H]2CN[C@@H]1C2 [Example 21, 3-(1-((1R,4R,5S)-2-azabicyclo[2.1.1]hexan-5-yl)-7-(2,3-dichlorophenyl)-6-fluoro-2-((R)-1-(3-(3-fluoropyridin-4-yl)-2-oxotetrahydropyrimidin-1(2H)-yl)ethyl)-4-methyl-1H-pyrrolo[3,2-c]quinolin-8-yl)propanenitrile]
